# Assays:
# [1] = molecular target: T1, thromboxane receptor (Homo sapiens, UniProt P21731); assay: test (b): blood platelet aggregation, antagonism of U46619 in citrated platelet-rich plasma; assay type: cell-based; settings: Example 2, unit inferred
# T1 construct: aggregating human, citrated, platelet-rich plasma; from tissue; host or cells: human platelets (citrated platelet-rich plasma)
# T1 sequence (P21731 1-343): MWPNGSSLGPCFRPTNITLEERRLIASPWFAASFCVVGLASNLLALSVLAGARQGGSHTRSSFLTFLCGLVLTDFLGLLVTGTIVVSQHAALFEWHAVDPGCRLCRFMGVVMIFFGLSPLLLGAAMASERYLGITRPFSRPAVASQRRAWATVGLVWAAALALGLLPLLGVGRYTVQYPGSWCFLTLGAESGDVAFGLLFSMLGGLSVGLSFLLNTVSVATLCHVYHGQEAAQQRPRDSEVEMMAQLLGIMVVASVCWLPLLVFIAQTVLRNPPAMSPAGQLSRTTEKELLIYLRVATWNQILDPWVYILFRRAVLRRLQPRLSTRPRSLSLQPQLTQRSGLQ
# Source text: (b) a blood platelet aggregation test based on that described by Born (Nature, 1962, 194, 927-929) and involving:
# (i) aggregating human, citrated, platelet-rich plasma by addition of the TXA2 mimetic agent U46619 so that a dose-response curve is generated;
# (ii) generating a dose-response curve for U46619 stimulated platelet aggregation in the presence of increasing amounts of test compound (generally in the range 10^-5 M to 10^-10 M); and
# (iii) calculating a KB value indicating potency of TXA2 antagonism for the test compound, averaged over several concentrations, from the calculated 50% response value for U46619 aggregation in the presence and absence of test compound; or […]
# [2] = test system: TXA2 synthase; assay: test (f): TXB2 production in blood samples from dosed rats; assay type: in vivo, rat; settings: oral dose of 25 mg/kg, up to 5 hours
# Procedure: The samples treated with anti-coagulant are first incubated at 37° C. with collagen (at about 100 micro M), then mixed with the cyclooxygenase inhibitor indomethacin (at about 10^-3 M), centrifuged and the level of the TXA2 metabolite, TXB2, determined by a standard radioimmunoassay technique. By comparison of the amount of TXB2 present in the plasma from animals dosed with test compound with that in the plasma of a control group dosed with placebo, the TXA2 synthase inhibitory properties may be assessed.
# [3] = observable signs of toxicity in test (f), rats; assay type: in vivo, rat; settings: oral dose of 25 mg/kg
# [4] = molecular target: T2, TXA2 synthase (Homo sapiens, UniProt P24557); assay: test (e): in vitro inhibition of human platelet microsomal TXA2 synthase (conversion of [1-^14 C]arachidonic acid to TXB2); assay type: biochemical
# T2 construct: using a human platelet microsomal TXA2 synthase preparation; from tissue; host or cells: human platelet microsomes
# T2 sequence (P24557 1-533): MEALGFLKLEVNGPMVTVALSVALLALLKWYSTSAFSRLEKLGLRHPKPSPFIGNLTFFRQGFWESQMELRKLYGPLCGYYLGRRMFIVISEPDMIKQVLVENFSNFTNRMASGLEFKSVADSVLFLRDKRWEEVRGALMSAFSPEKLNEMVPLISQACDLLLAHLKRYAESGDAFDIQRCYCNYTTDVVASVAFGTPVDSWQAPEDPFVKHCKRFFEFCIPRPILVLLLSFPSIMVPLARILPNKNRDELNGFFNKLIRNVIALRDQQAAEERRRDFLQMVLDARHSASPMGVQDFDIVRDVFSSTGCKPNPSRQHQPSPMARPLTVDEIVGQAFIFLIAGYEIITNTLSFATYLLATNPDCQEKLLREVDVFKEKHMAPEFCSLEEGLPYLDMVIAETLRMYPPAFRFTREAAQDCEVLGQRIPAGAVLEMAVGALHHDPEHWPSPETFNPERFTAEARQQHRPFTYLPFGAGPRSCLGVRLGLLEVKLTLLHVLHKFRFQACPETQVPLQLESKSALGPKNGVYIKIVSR
smiles,measurement,setting,value
"O=C(O)CC/C=C\C[C@@H]1CO[C@H](c2ccccc2Cl)O[C@@H]1c1cccnc1 (relative stereo) [Example 2, 4(Z)-6-[(2,4,5-cis)-2-(2-chlorophenyl)-4-(3-pyridyl)-1,3-dioxan-5-yl]hexenoic acid]",Kb,[1],650 nM
same,inhibition of TXB2 production,[2],essentially complete inhibition of TXB2 production
same,observable signs of toxicity,[3],without any observable signs of toxicity
same,IC50,[4],48 nM

# — patent publication US5166213A, “4-pyridyl substituted-1,3-dioxane compounds” (Imperial Chemical Industries PLC, priority 1988, dated 1992)
